Assay results taken from PubChem BioAssay (NCI).
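Cultured in 96-well plates, cells were exposed to test compound for 48 hours across five concentrations. TGI: total growth inhibition.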

What was measured:
Test in all cases: NCI-60 cell line screen, 48 h
786-0 renal = tested on: 786-0 renal
T-47D breast = tested on: T-47D breast
UACC-257 melanoma = tested on: UACC-257 melanoma
HS 578T breast = tested on: HS 578T breast
NCI-H23 lung = tested on: NCI-H23 lung
SNB-75 CNS = tested on: SNB-75 CNS
MDA-MB-435 = tested on: MDA-MB-435
MOLT-4 leukemia = tested on: MOLT-4 leukemia
HOP-92 NSCLC = tested on: HOP-92 NSCLC
MALME-3M melanoma = tested on: MALME-3M melanoma
OVCAR-4 ovarian = tested on: OVCAR-4 ovarian
HOP-62 NSCLC = tested on: HOP-62 NSCLC
ACHN renal = tested on: ACHN renal
SK-OV-3 ovarian = tested on: SK-OV-3 ovarian
UO-31 renal = tested on: UO-31 renal
A498 renal = tested on: A498 renal
COLO 205 colon = tested on: COLO 205 colon
SK-MEL-28 melanoma = tested on: SK-MEL-28 melanoma
MCF7 breast = tested on: MCF7 breast
MDA-MB-231 breast = tested on: MDA-MB-231 breast
LOX IMVI melanoma = tested on: LOX IMVI melanoma
M14 melanoma = tested on: M14 melanoma
IGROV1 ovarian = tested on: IGROV1 ovarian
RPMI-8226 leukemia = tested on: RPMI-8226 leukemia
PC-3 prostate = tested on: PC-3 prostate
MDA-N = tested on: MDA-N
SNB-19 CNS = tested on: SNB-19 CNS
CAKI-1 renal = tested on: CAKI-1 renal
A549 NSCLC = tested on: A549 NSCLC
HCT-15 colon = tested on: HCT-15 colon
HT29 colon = tested on: HT29 colon
KM12 colon = tested on: KM12 colon
SK-MEL-2 melanoma = tested on: SK-MEL-2 melanoma
SR leukemia = tested on: SR leukemia
DU-145 prostate = tested on: DU-145 prostate
OVCAR-3 ovarian = tested on: OVCAR-3 ovarian
EKVX NSCLC = tested on: EKVX NSCLC
HCC-2998 colon = tested on: HCC-2998 colon
HL-60(TB) leukemia = tested on: HL-60(TB) leukemia
NCI/ADR-RES ovarian = tested on: NCI/ADR-RES ovarian
UACC-62 melanoma = tested on: UACC-62 melanoma
NCI-H522 lung = tested on: NCI-H522 lung
SF-295 CNS = tested on: SF-295 CNS
TK-10 renal = tested on: TK-10 renal
NCI-H226 lung = tested on: NCI-H226 lung
HCT-116 colon = tested on: HCT-116 colon
K-562 leukemia = tested on: K-562 leukemia
SK-MEL-5 melanoma = tested on: SK-MEL-5 melanoma
RXF 393 renal = tested on: RXF 393 renal
U251 CNS = tested on: U251 CNS
SW-620 colon = tested on: SW-620 colon
SN12C renal = tested on: SN12C renal
NCI-H460 lung = tested on: NCI-H460 lung
SF-539 CNS = tested on: SF-539 CNS
OVCAR-5 ovarian = tested on: OVCAR-5 ovarian
SF-268 CNS = tested on: SF-268 CNS
OVCAR-8 ovarian = tested on: OVCAR-8 ovarian
CCRF-CEM leukemia = tested on: CCRF-CEM leukemia
BT-549 breast = tested on: BT-549 breast

For Nc1ncnc2c1ncn2C1OC(CO)=CC1O (centres undefined), which TGI (786-0 renal) is on record?
The TGI was over 37.5 µM.

What about the TGI (T-47D breast) of the same compound?
Its TGI is over 37.5 µM.

What about the TGI (UACC-257 melanoma) of the same compound?
Its TGI is over 37.5 µM.

And the TGI (HS 578T breast)?
Its TGI is over 37.5 µM.

What about the TGI (NCI-H23 lung) of the same compound?
Its TGI is over 37.5 µM.

What about the TGI (SNB-75 CNS) of the same compound?
The TGI was over 37.5 µM.

What about the TGI (MDA-MB-435) of the same compound?
The TGI was over 37.5 µM.

What about the TGI (MOLT-4 leukemia) of the same compound?
The TGI was over 37.5 µM.

And the TGI (HOP-92 NSCLC)?
The TGI was over 37.5 µM.

What about the TGI (MALME-3M melanoma) of the same compound?
The TGI was over 37.5 µM.

And the TGI (OVCAR-4 ovarian)?
The TGI was over 37.5 µM.

What about the TGI (HOP-62 NSCLC) of the same compound?
The TGI was over 37.5 µM.

And the TGI (ACHN renal)?
Its TGI is over 37.5 µM.

What about the TGI (SK-OV-3 ovarian) of the same compound?
The TGI was over 37.5 µM.

And the TGI (UO-31 renal)?
Its TGI is over 37.5 µM.

And the TGI (A498 renal)?
The TGI was over 37.5 µM.

What about the TGI (COLO 205 colon) of the same compound?
The TGI was over 37.5 µM.

What about the TGI (SK-MEL-28 melanoma) of the same compound?
Its TGI is over 37.5 µM.

And the TGI (MCF7 breast)?
Its TGI is over 37.5 µM.

And the TGI (MDA-MB-231 breast)?
The TGI was over 37.5 µM.

And the TGI (LOX IMVI melanoma)?
The TGI was over 37.5 µM.

What about the TGI (M14 melanoma) of the same compound?
Its TGI is over 37.5 µM.

What about the TGI (IGROV1 ovarian) of the same compound?
Its TGI is over 37.5 µM.

And the TGI (RPMI-8226 leukemia)?
The TGI was over 37.5 µM.

And the TGI (PC-3 prostate)?
The TGI was over 37.5 µM.

And the TGI (MDA-N)?
Its TGI is over 37.5 µM.

And the TGI (SNB-19 CNS)?
Its TGI is over 37.5 µM.

What about the TGI (CAKI-1 renal) of the same compound?
Its TGI is over 37.5 µM.

And the TGI (A549 NSCLC)?
The TGI was over 37.5 µM.

What about the TGI (HCT-15 colon) of the same compound?
Its TGI is over 37.5 µM.

And the TGI (HT29 colon)?
Its TGI is over 37.5 µM.

What about the TGI (KM12 colon) of the same compound?
Its TGI is over 37.5 µM.

What about the TGI (SK-MEL-2 melanoma) of the same compound?
Its TGI is over 37.5 µM.

And the TGI (SR leukemia)?
Its TGI is over 37.5 µM.

And the TGI (DU-145 prostate)?
The TGI was over 37.5 µM.

And the TGI (OVCAR-3 ovarian)?
The TGI was over 37.5 µM.

And the TGI (EKVX NSCLC)?
Its TGI is over 37.5 µM.

And the TGI (HCC-2998 colon)?
Its TGI is over 37.5 µM.

What about the TGI (HL-60(TB) leukemia) of the same compound?
Its TGI is over 37.5 µM.

What about the TGI (NCI/ADR-RES ovarian) of the same compound?
Its TGI is over 37.5 µM.

And the TGI (UACC-62 melanoma)?
The TGI was over 37.5 µM.

And the TGI (NCI-H522 lung)?
The TGI was over 37.5 µM.

And the TGI (SF-295 CNS)?
The TGI was over 37.5 µM.

What about the TGI (TK-10 renal) of the same compound?
Its TGI is over 37.5 µM.

What about the TGI (NCI-H226 lung) of the same compound?
The TGI was over 37.5 µM.

What about the TGI (HCT-116 colon) of the same compound?
Its TGI is over 37.5 µM.

What about the TGI (K-562 leukemia) of the same compound?
The TGI was over 37.5 µM.

And the TGI (SK-MEL-5 melanoma)?
The TGI was over 37.5 µM.

What about the TGI (RXF 393 renal) of the same compound?
The TGI was over 37.5 µM.

And the TGI (U251 CNS)?
The TGI was over 37.5 µM.

And the TGI (SW-620 colon)?
The TGI was over 37.5 µM.

And the TGI (SN12C renal)?
Its TGI is over 37.5 µM.

What about the TGI (NCI-H460 lung) of the same compound?
Its TGI is over 37.5 µM.

And the TGI (SF-539 CNS)?
Its TGI is over 37.5 µM.

What about the TGI (OVCAR-5 ovarian) of the same compound?
Its TGI is over 37.5 µM.

And the TGI (SF-268 CNS)?
Its TGI is over 37.5 µM.

And the TGI (OVCAR-8 ovarian)?
Its TGI is over 37.5 µM.

What about the TGI (CCRF-CEM leukemia) of the same compound?
The TGI was over 37.5 µM.

Which TGI (UACC-257 melanoma) does the source give for N=c1ccc2c(c1)[nH]c1c3ccccc3[nH]c3cccc2c31 here?
The TGI was 3.52 µM.

And the TGI (NCI-H23 lung)?
Its TGI is 2.94 µM.

And the TGI (MDA-MB-435)?
The TGI was 3.2 µM.

What about the TGI (HOP-92 NSCLC) of the same compound?
The TGI was 3.22 µM.

And the TGI (OVCAR-4 ovarian)?
The TGI was 3.23 µM.

And the TGI (HOP-62 NSCLC)?
The TGI was 2.58 µM.

And the TGI (ACHN renal)?
The TGI was 2.74 µM.

What about the TGI (SK-OV-3 ovarian) of the same compound?
Its TGI is 3 µM.

And the TGI (UO-31 renal)?
The TGI was 3.14 µM.

And the TGI (A498 renal)?
The TGI was 3.2 µM.

And the TGI (COLO 205 colon)?
Its TGI is 2.67 µM.

And the TGI (MDA-MB-231 breast)?
The TGI was 2.69 µM.

And the TGI (M14 melanoma)?
The TGI was 3.65 µM.

And the TGI (IGROV1 ovarian)?
The TGI was 2.67 µM.

What about the TGI (PC-3 prostate) of the same compound?
Its TGI is 2.97 µM.

And the TGI (MDA-N)?
Its TGI is 2.76 µM.

And the TGI (SNB-19 CNS)?
The TGI was 3 µM.

And the TGI (CAKI-1 renal)?
Its TGI is 3.02 µM.

And the TGI (HT29 colon)?
Its TGI is 2.47 µM.

What about the TGI (KM12 colon) of the same compound?
The TGI was 2.6 µM.

And the TGI (SK-MEL-2 melanoma)?
Its TGI is 3.14 µM.

And the TGI (DU-145 prostate)?
Its TGI is 2.95 µM.

And the TGI (EKVX NSCLC)?
Its TGI is 3.1 µM.

And the TGI (HCC-2998 colon)?
The TGI was 2.44 µM.

And the TGI (HL-60(TB) leukemia)?
The TGI was over 100 µM.

What about the TGI (NCI-H522 lung) of the same compound?
The TGI was 3.06 µM.

What about the TGI (SF-295 CNS) of the same compound?
Its TGI is 2.61 µM.

And the TGI (TK-10 renal)?
The TGI was 3.62 µM.

And the TGI (HCT-116 colon)?
Its TGI is 2.8 µM.

What about the TGI (K-562 leukemia) of the same compound?
The TGI was over 100 µM.

And the TGI (SK-MEL-5 melanoma)?
The TGI was 3.17 µM.

What about the TGI (RXF 393 renal) of the same compound?
Its TGI is 3.09 µM.

And the TGI (SW-620 colon)?
The TGI was 2.02 µM.

And the TGI (OVCAR-5 ovarian)?
Its TGI is 3.16 µM.

And the TGI (CCRF-CEM leukemia)?
The TGI was over 100 µM.

And the TGI (BT-549 breast)?
The TGI was 13.1 µM.
